Experimental data from US12129237B2, “Substituted diaminocarboxamide and diaminocarbonitrile pyrimidines, compositions thereof, and methods of treatment therewith” (SIGNAL PHARMACEUTICALS, LLC, priority 2011, dated 2024).
pIC50: −log10 of the molar value.

Target: T1, JNK1 (Homo sapiens, UniProt P45983)
T1 construct: purchased Carna Biosciences
Assay: JNK1 biochemical assays (one or more of: time resolved fluorescence, Z'-LYTE Cascade, radioactive)
Details: Table 2; JNK1 IC50 activity level; read-out: Act. Level

T1 sequence (P45983 whole entry): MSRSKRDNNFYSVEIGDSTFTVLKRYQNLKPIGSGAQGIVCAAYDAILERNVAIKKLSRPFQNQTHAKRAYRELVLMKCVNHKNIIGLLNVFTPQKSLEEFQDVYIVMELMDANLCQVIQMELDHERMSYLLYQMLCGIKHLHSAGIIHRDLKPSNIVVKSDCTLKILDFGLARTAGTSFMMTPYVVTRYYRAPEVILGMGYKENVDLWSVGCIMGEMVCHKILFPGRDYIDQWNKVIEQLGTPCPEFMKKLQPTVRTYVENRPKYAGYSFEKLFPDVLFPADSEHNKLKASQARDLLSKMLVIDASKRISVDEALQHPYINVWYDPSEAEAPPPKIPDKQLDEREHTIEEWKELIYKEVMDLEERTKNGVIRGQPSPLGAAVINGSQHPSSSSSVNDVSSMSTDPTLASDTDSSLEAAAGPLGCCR

| Structure (SMILES) | pIC50 |
| --- | --- |
| NC(=O)c1cnc(N[C@H]2CCc3ccccc3C2)nc1N[C@@H]1CCC[C@H](O)C1 [Example B-85, 4-((1R,3)S-3-hydroxycyclohexylamino)-2-((S)-1,2,3,4-tetrahydronaphthalen-2-ylamino)pyrimidine-5-carboxamide] | 6.00 to 6.10 |
| C[C@H](Nc1ncc(C(N)=O)c(N[C@@H]2CCC[C@H](O)C2)n1)c1ccc(F)cc1 [Example B-90, 2-((S)-1-(4-fluorophenyl)ethylamino)-4-((1R,3S)-3-hydroxycyclohexylamino)pyrimidine-5-carboxamide] | 5.00 to 6.00 |
| NC(=O)c1cnc(N[C@H]2CCc3cccnc3C2)nc1N[C@@H]1CCC[C@H](O)C1 [Example B-87, 4-((1R,3S)-3-hydroxycyclohexylamino)-2-((S)-5,6,7,8-tetrahydroquinolin-7-ylamino)pyrimidine-5-carboxamide] | > 6.70 |
| NC(=O)c1cnc(Nc2ccccc2Oc2ccccc2)nc1Nc1ccccc1 [Example B-22, 2-(2-phenoxyphenylamino)-4-(phenylamino)pyrimidine-5-carboxamide] | > 6.70 |
| NC(=O)c1cnc(N[C@H]2CCCc3ccccc32)nc1N[C@@H]1CCC[C@H](O)C1 [Example B-75, 4-((1R,3S)-3-hydroxycyclohexylamino)-2-((S)-1,2,3,4-tetrahydronaphthalen-1-ylamino)pyrimidine-5-carboxamid] | > 6.70 |

Same assay, conditions: Table 3; JNK1 IC50 activity level; read-out: Act. Level

| Structure (SMILES) | pIC50 |
| --- | --- |
| CO[C@H]1CC[C@H](Nc2ncc(C#N)c(N[C@@H]3CCCC[C@@](C)(O)C3)n2)CC1 [Example C-53, 4-((1R,3R)-3-hydroxy-3-methylcycloheptylamino)-2-((1r,4R)-4-methoxycyclohexylamino) pyrmidine-5-carbonitrile] | > 6.70 |
| CCO[C@H]1CC[C@H](Nc2ncc(C#N)c(N[C@H]3CC[C@@H](O)CC3)n2)CC1 [Example C-22, 2-((1r,4r)-4-ethoxycyclohexylamino)-4-((1s,4s)-4-hydroxycyclohexylamino) pyrimidine-5-carbonitrile] | 6.10 to 6.70 |
| N#Cc1cnc(NC2CCC(F)(F)CC2)nc1N[C@@H]1CCC[C@H](O)C1 [Example C-3, 2-(4,4-difluorocyclohexylamino)-4-((1R,3S)-3-hydroxycyclohexylamino) pyrimidine-5-carbonitrile] | 6.10 to 6.70 |

Same assay, conditions: one or more of the JNK1 biochemical assays; read-out: Act. Level (JNK1 IC50 activity level)

| Structure (SMILES) | pIC50 |
| --- | --- |
| NC(=O)c1cnc(N[C@@H]2CCC[C@H](O)C2)nc1NC1CCC1 [Example 433, 4-(cyclobutylamino)-2-((1R,3S)-3-hydroxycyclohexylamino)pyrimidine-5-carboxamide] | > 6.70 |
| CC(C)(Nc1nc(NC23CCC(O)(CC2)C3)ncc1C(N)=O)C1CC1 [Example 445, 4-(2-cyclopropylpropan-2-ylamino)-2-(4-hydroxybicyclo[2.2.1]heptan-1-ylamino)pyrimidine-5-carboxamide] | > 6.70 |
| C[C@@H]1CC[C@@H](Nc2nc(N[C@H](C)C3CC3)ncc2C(N)=O)C[C@H]1O [Example 394, 2-((R)-1-cyclopropylethylamino)-4-((1R,3R,4R)-3-hydroxy-4-methylcyclohexylamino)pyrimidine-5-carboxamide] | > 6.70 |
| NC(=O)c1cnc(N[C@H]2CC[C@H](OC3CC3)CC2)nc1N[C@@H]1CCC[C@H](O)C1 [Example 205, 2-((1r,4R)-4-cyclopropoxycyclohexylamino)-4-((1R,3S)-3-hydroxycyclohexylamino)pyrimidine-5-carboxamide] | > 6.70 |
| C[C@H]1C[C@@H](Nc2nc(N[C@H]3CC[C@H](O)CC3)ncc2C(N)=O)C1 [Example 327, 2-((1r,4r)-4-hydroxycyclohexylamino)-4-((1s,3s)-3-methylcyclobutylamino)pyrimidine-5-carboxamide] | > 6.70 |
| C[C@@H]1CC[C@@H](Nc2nc(NCC(C)(C)C)ncc2C(N)=O)C[C@H]1O [Example 367, 4-((1R,3R,4R)-3-hydroxy-4-methylcyclohexylamino)-2-(neopentylamino)pyrimidine-5-carboxamide] | > 6.70 |
| NC(=O)c1cnc(NC2CC2)nc1N[C@@H]1CCC[C@H](O)C1 [Example 379, 2-(cyclopropylamino)-4-((1R,3S)-3-hydroxycyclohexylamino)pyrimidine-5-carboxamide] | > 6.70 |
| NC(=O)c1cnc(NC2CCOCC2)nc1N[C@@H]1CCC[C@@H]1CO [Example 252, 4-((1R,2S)-2-(hydroxymethyl)cyclopentylamino)-2-(tetrahydro-2H-pyran-4-ylamino)pyrimidine-5-carboxamide] | > 6.70 |
| CC(C)(C)Nc1nc(NC23CCC(O)(CC2)C3)ncc1C(N)=O [Example 399, 4-(tert-butylamino)-2-(4-hydroxybicyclo[2.2.1]heptan-1-ylamino)pyrimidine-5-carboxamide] | > 6.70 |
| CCO[C@H]1CC[C@H](Nc2ncc(C(N)=O)c(NC3(CC)CCCCC3)n2)CC1 [Example 478, 2-((1r,4r)-4-ethoxycyclohexylamino)-4-(1-ethylcyclohexylamino)pyrimidine-5-carboxamide] | > 6.70 |
| NC(=O)c1cnc(NC23CCC(O)(CC2)CC3)nc1N[C@@H]1CCC[C@H](O)C1 [Example 229, 2-(4-hydroxybicyclo[2.2.2]octan-1-ylamino)-4-((1R,3S)-3-hydroxycyclohexylamino)pyrimidine-5-carboxamide] | > 6.70 |
| CCO[C@H]1CC[C@H](Nc2ncc(C(N)=O)c(NC(C)C)n2)CC1 [Example 224, 2-((1r,4r)-4-ethoxycyclohexylamino)-4-(isopropylamino)pyrimidine-5-carboxamide] | > 6.70 |
| CC(C)(Nc1nc(N[C@@H]2CCC[C@@H](O)C2)ncc1C(N)=O)C1CC1 [Example 465, 4-(2-cyclopropylpropan-2-ylamino)-2-((1R,3R)-3-hydroxycyclohexylamino)pyrimidine-5-carboxamide] | > 6.70 |
| CCC1(Nc2nc(N[C@H]3CC[C@H](O)CC3)ncc2C(N)=O)CCCC1 [Example 455, 4-(1-ethylcyclopentylamino)-2-((1r,4r)-4-hydroxycyclohexylamino)pyrimidine-5-carboxamide] | > 6.70 |
| C[C@@H]1CC[C@@H](Nc2nc(NC3CC3)ncc2C(N)=O)C[C@H]1O [Example 272, 2-(cyclopropylamino)-4-((1R,3R,4R)-3-hydroxy-4-methylcyclohexylamino)pyrimidine-5-carboxamide] | > 6.70 |
| CCO[C@H]1CC[C@H](Nc2ncc(C(N)=O)c(N[C@H](C)C(C)(C)C)n2)CC1 [Example 277, 4-((R)-3,3-dimethylbutan-2-ylamino)-2-((1r,4R)-4-ethoxycyclohexylamino)pyrimidine-5-carboxamide] | > 6.70 |
| CC1(C)CCC(Nc2nc(NC(C)(C)C)ncc2C(N)=O)C(O)C1 (stereo not drawn) [Example 343, 2-(tert-butylamino)-4-(2-hydroxy-4,4-dimethylcyclohexylamino)pyrimidine-5-carboxamide] | > 6.70 |
| CC12CC(Nc3nc(NC45CCC(O)(CC4)C5)ncc3C(N)=O)(C1)C2 [Example 490, 2-(4-hydroxybicyclo[2.2.1]heptan-1-ylamino)-4-(3-methylbicyclo[1.1.1]pentan-1-ylamino)pyrimidine-5-carboxamide] | > 6.70 |
| CCC(C)(C)Nc1nc(N[C@H]2CC[C@H](O)CC2)ncc1C(N)=O [Example 225, 2-((1r,4r)-4-hydroxycyclohexylamino)-4-(tert-pentylamino)pyrimidine-5-carboxamide] | > 6.70 |

Same assay, conditions: tested in one or more of the JNK1 biochemical assays; read-out: Act. Level (JNK1 biochemical assay IC50 activity level)

| Structure (SMILES) | pIC50 |
| --- | --- |
| CC1(Nc2ncc(C(N)=O)c(N[C@@H]3CCCC[C@H](O)C3)n2)CCOCC1 [Example A-181, 4-((1R,3S)-3-hydroxycycloheptylamino)-2-(4-methyltetrahydro-2H-pyran-4-ylamino)pyrimidine-5-carboxamide] | > 6.70 |
| C[C@]1(O)CCC[C@@H](Nc2nc(N[C@H]3CC[C@H](OCC(F)(F)F)CC3)ncc2C(N)=O)C1 [Example A-168, 4-((1R,3S)-3-hydroxy-3-methylcyclohexylamino)-2-((1r,4R)-4-(2,2,2-trifluoroethoxy)cyclohexylamino)pyrimidine-5-carboxamid] | > 6.70 |
| CC[C@]1(O)CCC[C@@H](Nc2nc(N[C@H]3CC[C@H](OC)CC3)ncc2C(N)=O)C1 [Example A-161, 4-((1R,3S)-3-ethyl-3-hydroxycyclohexylamino)-2-((1r,4R)-4-methoxycyclohexylamino)pyrimidine-5-carboxamide] | > 6.70 |
| CC(=O)N[C@H]1CC[C@H](Nc2ncc(C(N)=O)c(N[C@@H]3CCC[C@H](O)C3)n2)CC1 [Example A-39, 2-((1r,4R)-4-acetamidocyclohexylamino)-4-((1R,3S)-3-hydroxycyclohexylamino)pyrimidine-5-carboxamide] | > 6.70 |
| NC(=O)c1cnc(N[C@H]2CC[C@H](OCC(F)(F)F)CC2)nc1N[C@@H]1CCC[C@H]1O [Example A-156, 4-((1R,2R)-2-hydroxycyclopentylamino)-2-((1r,4R)-4-(2,2,2-trifluoroethoxy)cyclohexylamino)pyrimidine-5-carboxamid] | > 6.70 |
| CO[C@H]1CC[C@H](Nc2ncc(C(N)=O)c(N[C@H]3CC[C@@H](O)C3)n2)CC1 [Example A-80, 4-((1S,3R)-3-hydroxycyclopentylamino)-2-((1r,4S)-4-methoxycyclohexylamino)pyrimidine-5-carboxamide] | > 6.70 |
| CO[C@H]1CC[C@H](Nc2ncc(C(N)=O)c(N[C@@H]3CCNC(=O)C3)n2)CC1 [Example A-26, 2-((1r,4R)-4-methoxycyclohexylamino)-4-((R)-2-oxopiperidin-4-ylamino)pyrimidine-5-carboxamide] | 6.10 to 6.70 |
| C[C@H](Nc1ncc(C(N)=O)c(N[C@H]2CC[C@@H](N)CC2)n1)C1CCCCC1 [Example A-126, 4-((1s,4R)-4-aminocyclohexylamino)-2-((S)-1-cyclohexylethylamino)pyrimidine-5-carboxamide] | > 6.70 |
| CC1(Nc2nc(N[C@H]3CC[C@H](O)CC3)ncc2C(N)=O)CCOCC1 [Example A-79, 2-((1r,4r)-4-hydroxycyclohexylamino)-4-(4-methyltetrahydro-2H-pyran-4-ylamino)pyrimidine-5-carboxamide] | > 6.70 |
